The source of these data is article PMC6886798, “Expression of myeloid Src-family kinases is associated with poor prognosis in AML and influences Flt3-ITD kinase inhibitor acquired resistance” (PLoS ONE, 2019).

One experiment addresses T1, Hck T338M (Homo sapiens, UniProt P08631, T333M).
T1 construct: Recombinant near-full-length kinases, consisting of the SH2, SH3 and kinase domains plus the negative regulatory tail; made in house; host or cells: E. coli BL21Star (DE3), co-expressed with Csk and PTP1B
The experiment can be described thus: Z'-LYTE in vitro kinase assay. The experiment is classed as biochemical. As to conditions: Hck T338M; Tyr-2 peptide 1.0 μM; read-out: ATP Km.

In the next experiment the target is T2, Hck T338F (Homo sapiens, UniProt P08631, T333F).
T2 construct: Recombinant near-full-length kinases, consisting of the SH2, SH3 and kinase domains plus the negative regulatory tail; made in house; host or cells: E. coli BL21Star (DE3), co-expressed with Csk and PTP1B
Nature of the experiment: Z'-LYTE in vitro kinase assay. In kind it is biochemical. Conditions: Hck T338F; Tyr-2 peptide 1.0 μM; read-out: ATP Km.

The target in the next experiment is T3, Hck wild-type (Homo sapiens, UniProt P08631).
T3 construct: Recombinant near-full-length kinases, consisting of the SH2, SH3 and kinase domains plus the negative regulatory tail; made in house; host or cells: E. coli BL21Star (DE3), co-expressed with Csk and PTP1B
The experiment can be described thus: Z'-LYTE in vitro kinase assay. In kind it is biochemical. As to conditions: Tyr-2 peptide 1.0 μM, read-out: ATP Km.

Another experiment concerns the target T4, Fgr T338F (Homo sapiens, UniProt P09769, T334F).
T4 construct: Recombinant near-full-length kinases, consisting of the SH2, SH3 and kinase domains plus the negative regulatory tail; made in house; host or cells: E. coli BL21Star (DE3), co-expressed with Csk and PTP1B
The experiment can be described thus: Z'-LYTE in vitro kinase assay. In kind it is biochemical. Conditions: Fgr T338F; Tyr-2 peptide 1.0 μM; read-out: ATP Km.

The next experiment concerns the target T5, Lyn T338F (Homo sapiens, UniProt P07948, T319F).
T5 construct: Recombinant near-full-length kinases, consisting of the SH2, SH3 and kinase domains plus the negative regulatory tail; made in house; host or cells: E. coli BL21Star (DE3), co-expressed with Csk and PTP1B
Nature of the experiment: Z'-LYTE in vitro kinase assay. In kind it is biochemical. As to conditions: Tyr-2 peptide 1.0 μM, read-out: ATP Km.

The next experiment addresses T6, Lyn wild-type (Homo sapiens, UniProt P07948).
T6 construct: Recombinant near-full-length kinases, consisting of the SH2, SH3 and kinase domains plus the negative regulatory tail; made in house; host or cells: E. coli BL21Star (DE3), co-expressed with Csk and PTP1B
Nature of the experiment: Z'-LYTE in vitro kinase assay. In kind it is biochemical. Conditions: Tyr-2 peptide 1.0 μM, read-out: ATP Km.

Another experiment addresses T7, Fgr T338M (Homo sapiens, UniProt P09769, T334M).
T7 construct: Recombinant near-full-length kinases, consisting of the SH2, SH3 and kinase domains plus the negative regulatory tail; made in house; host or cells: E. coli BL21Star (DE3), co-expressed with Csk and PTP1B
Nature of the experiment: Z'-LYTE in vitro kinase assay. In kind it is biochemical. As to conditions: Fgr T338M; Tyr-2 peptide 1.0 μM; read-out: ATP Km.

Another experiment has as its target T8, Lyn T338M (Homo sapiens, UniProt P07948, T319M).
T8 construct: Recombinant near-full-length kinases, consisting of the SH2, SH3 and kinase domains plus the negative regulatory tail; made in house; host or cells: E. coli BL21Star (DE3), co-expressed with Csk and PTP1B
Nature of the experiment: Z'-LYTE in vitro kinase assay. The experiment is classed as biochemical. Conditions: Tyr-2 peptide 1.0 μM, read-out: ATP Km.

For the next experiment, the target named is T9, Fgr T338L (Homo sapiens, UniProt P09769, T334L).
T9 construct: Recombinant near-full-length kinases, consisting of the SH2, SH3 and kinase domains plus the negative regulatory tail; made in house; host or cells: E. coli BL21Star (DE3), co-expressed with Csk and PTP1B
Nature of the experiment: Z'-LYTE in vitro kinase assay. In kind it is biochemical. As to conditions: Tyr-2 peptide 1.0 μM, read-out: ATP Km.

The target in the next experiment is T10, Hck T338L (Homo sapiens, UniProt P08631, T333L).
T10 construct: Recombinant near-full-length kinases, consisting of the SH2, SH3 and kinase domains plus the negative regulatory tail; made in house; host or cells: E. coli BL21Star (DE3), co-expressed with Csk and PTP1B
Nature of the experiment: Z'-LYTE in vitro kinase assay. In kind it is biochemical. Conditions: Hck T338L; Tyr-2 peptide 1.0 μM; read-out: ATP Km.

Another experiment has as its target T11, Lyn T338L (Homo sapiens, UniProt P07948, T319L).
T11 construct: Recombinant near-full-length kinases, consisting of the SH2, SH3 and kinase domains plus the negative regulatory tail; made in house; host or cells: E. coli BL21Star (DE3), co-expressed with Csk and PTP1B
The experiment can be described thus: Z'-LYTE in vitro kinase assay. In kind it is biochemical. Conditions: Tyr-2 peptide 1.0 μM, read-out: ATP Km.

A further experiment deals with T12, Fgr wild-type (Homo sapiens, UniProt P09769).
T12 construct: Recombinant near-full-length kinases, consisting of the SH2, SH3 and kinase domains plus the negative regulatory tail; made in house; host or cells: E. coli BL21Star (DE3), co-expressed with Csk and PTP1B
The experiment can be described thus: Z'-LYTE in vitro kinase assay. The experiment is classed as biochemical. As to conditions: Tyr-2 peptide 1.0 μM, read-out: ATP Km.

The test system of experiment [1] is MOLM14 R3 (A-419259-resistant population). Nature of the experiment: CellTiter-Blue cell viability. Conditions: Homo sapiens, MOLM-14, S11 Fig, read-out: PRT062607 IC50, nM (growth suppression). In kind it is cell-based, human. How it is done: (§1) Cell viability was assessed using the CellTiter-Blue reagent according to the manufacturer’s instructions (Promega). Fluorescence intensity, which correlates directly with viable cell number, was measured using a SpectraMax M5 microplate reader. Each experiment included three technical replicates per condition, and each experiment was repeated at least three times. […] Viability of each cell population was measured three times per week using the CellTiter-Blue assay.
For orientation: Resazurin is reduced to fluorescent resorufin, in cell work by metabolically active cells.

The test system of experiment [2] is MV4-11 R3 (A-419259-resistant population). Nature of the experiment: CellTiter-Blue cell viability. The experiment is classed as cell-based, human. As to conditions: Homo sapiens, S11 Fig, read-out: PRT062607 IC50, nM (growth suppression). How it is done: as §1
In experiment [3] the test system is MOLM14 R2 (A-419259-resistant population). Nature of the experiment: CellTiter-Blue cell viability. In kind it is cell-based, human. As to conditions: Homo sapiens, MOLM-14, S11 Fig, read-out: PRT062607 IC50, nM (growth suppression). How it is done:
as §1

The subject of experiment [4] is MOLM13 R3 (A-419259-resistant population). Nature of the experiment: CellTiter-Blue cell viability. The experiment is classed as cell-based, human. As to conditions: Homo sapiens, MOLM-13, S11 Fig, read-out: PRT062607 IC50, nM (growth suppression). How it is done: as §1
Experiment [5] relates to MV4-11 R2 (A-419259-resistant population). Nature of the experiment: CellTiter-Blue cell viability. The experiment is classed as cell-based, human. As to conditions: Homo sapiens, S11 Fig, read-out: PRT062607 IC50, nM (growth suppression). How it is done: as §1
For experiment [6], the system named is MOLM14 R1 (A-419259-resistant population). The experiment can be described thus: CellTiter-Blue cell viability. In kind it is cell-based, human. As to conditions: Homo sapiens, MOLM-14, S11 Fig, read-out: PRT062607 IC50, nM (growth suppression). How it is done:
as §1

The next experiment has as its system MOLM14 cells (parent). The experiment can be described thus: CellTiter-Blue cell viability. The experiment is classed as cell-based, human. Conditions: Homo sapiens, MOLM-14, S11 Fig, read-out: PRT062607 IC50, nM (growth suppression). How it is done:
(§2) Gibco/ThermoFisher). Parental TF-1 cells also require recombinant human GM-CSF (1 ng/mL; ThermoFisher). MOLM13 and MOLM14 cells were obtained from Leibniz Institute Deutsche Sammlung von Mikroorganismen (DSMZ) and grown in RPMI 1640 medium containing 20% FBS and Antibiotic-Antimycotic. […] Cell viability was assessed using the CellTiter-Blue reagent according to the manufacturer’s instructions (Promega). Fluorescence intensity, which correlates directly with viable cell number, was measured using a SpectraMax M5 microplate reader. Each experiment included three technical replicates per condition, and each experiment was repeated at least three times.

The test system of a further experiment is MOLM13 cells (parent). The experiment can be described thus: CellTiter-Blue cell viability. As to conditions: Homo sapiens, MOLM-13, S11 Fig, read-out: PRT062607 IC50, nM (growth suppression). In kind it is cell-based, human. How it is done: as §2
For the next experiment, the system named is MV4-11 cells (parent). Nature of the experiment: CellTiter-Blue cell viability. The experiment is classed as cell-based, human. As to conditions: Homo sapiens; S11 Fig; MV4-11 Parent; read-out: PRT062607 IC50, nM (growth suppression). How it is done:
as §2

For experiment [7], the system named is MV4-11, MOLM13 and MOLM14 parent and A-419259-resistant cell populations. Nature of the experiment: CellTiter-Blue cell viability, parent and resistant AML populations as a group. In kind it is cell-based, human. How it is done: as §1
For experiment [8], the system named is myeloid Src-family kinases. Also on record: method as in S. Hellwig and T. Smithgall, unpublished data. As to conditions: ref S. Hellwig and T. Smithgall, unpublished data; cited from earlier work.

T10 sequence (P08631 78-526 T333L limits assumed): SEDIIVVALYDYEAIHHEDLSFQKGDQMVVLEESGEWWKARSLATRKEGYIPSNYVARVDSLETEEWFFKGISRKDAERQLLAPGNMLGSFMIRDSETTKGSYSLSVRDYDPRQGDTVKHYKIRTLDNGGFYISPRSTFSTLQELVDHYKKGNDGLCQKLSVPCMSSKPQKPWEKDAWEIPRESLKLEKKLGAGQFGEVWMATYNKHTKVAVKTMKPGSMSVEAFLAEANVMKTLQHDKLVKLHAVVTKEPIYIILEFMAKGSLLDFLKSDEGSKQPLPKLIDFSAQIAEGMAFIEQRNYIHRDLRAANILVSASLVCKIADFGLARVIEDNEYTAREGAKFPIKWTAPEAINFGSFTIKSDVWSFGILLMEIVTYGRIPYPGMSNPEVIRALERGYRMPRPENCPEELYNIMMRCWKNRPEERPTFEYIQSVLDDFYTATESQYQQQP
T6 sequence (P07948 63-512 limits assumed): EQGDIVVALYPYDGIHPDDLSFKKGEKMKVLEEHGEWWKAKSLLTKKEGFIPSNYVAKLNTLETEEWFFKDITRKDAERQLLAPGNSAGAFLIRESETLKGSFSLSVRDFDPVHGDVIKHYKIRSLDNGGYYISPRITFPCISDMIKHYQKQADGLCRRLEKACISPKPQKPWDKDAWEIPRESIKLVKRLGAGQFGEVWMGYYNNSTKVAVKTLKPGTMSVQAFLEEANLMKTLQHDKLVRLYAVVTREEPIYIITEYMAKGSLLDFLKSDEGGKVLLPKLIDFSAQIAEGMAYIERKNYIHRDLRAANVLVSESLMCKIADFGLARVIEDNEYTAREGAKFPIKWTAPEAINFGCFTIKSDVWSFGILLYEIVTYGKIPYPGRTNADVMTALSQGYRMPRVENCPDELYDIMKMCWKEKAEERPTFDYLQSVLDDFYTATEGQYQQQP
T8 sequence (P07948 63-512 T319M limits assumed): as the sequence (P07948 63-512 limits assumed) above, with T257M counted along it
T5 sequence (P07948 63-512 T319F limits assumed): as the sequence (P07948 63-512 limits assumed) above, with T257F counted along it
T3 sequence (P08631 78-526 limits assumed): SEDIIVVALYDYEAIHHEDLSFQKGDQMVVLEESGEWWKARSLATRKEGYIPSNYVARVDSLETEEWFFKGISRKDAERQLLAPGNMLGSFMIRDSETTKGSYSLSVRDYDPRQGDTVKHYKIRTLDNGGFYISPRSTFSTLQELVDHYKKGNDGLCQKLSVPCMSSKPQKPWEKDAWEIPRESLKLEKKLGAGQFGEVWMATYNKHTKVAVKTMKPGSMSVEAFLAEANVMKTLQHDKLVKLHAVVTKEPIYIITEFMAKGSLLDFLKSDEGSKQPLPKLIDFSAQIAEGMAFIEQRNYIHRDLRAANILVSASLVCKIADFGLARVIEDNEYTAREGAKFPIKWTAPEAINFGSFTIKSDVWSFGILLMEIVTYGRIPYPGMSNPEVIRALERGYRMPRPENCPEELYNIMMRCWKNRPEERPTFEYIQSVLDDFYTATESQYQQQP
T2 sequence (P08631 78-526 T333F limits assumed): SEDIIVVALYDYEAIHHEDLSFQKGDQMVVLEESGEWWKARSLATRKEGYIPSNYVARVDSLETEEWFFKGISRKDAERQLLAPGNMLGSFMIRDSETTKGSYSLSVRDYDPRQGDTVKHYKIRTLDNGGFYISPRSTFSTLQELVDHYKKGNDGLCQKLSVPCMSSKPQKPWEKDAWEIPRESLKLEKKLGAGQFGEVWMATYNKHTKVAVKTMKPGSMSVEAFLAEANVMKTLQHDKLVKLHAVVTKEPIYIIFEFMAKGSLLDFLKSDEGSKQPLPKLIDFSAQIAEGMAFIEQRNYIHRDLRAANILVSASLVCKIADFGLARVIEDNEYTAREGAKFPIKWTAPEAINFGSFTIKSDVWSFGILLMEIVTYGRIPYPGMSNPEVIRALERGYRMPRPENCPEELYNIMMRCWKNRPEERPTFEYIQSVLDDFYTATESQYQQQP
T11 sequence (P07948 63-512 T319L limits assumed): as the sequence (P07948 63-512 limits assumed) above, with T257L counted along it
T1 sequence (P08631 78-526 T333M limits assumed): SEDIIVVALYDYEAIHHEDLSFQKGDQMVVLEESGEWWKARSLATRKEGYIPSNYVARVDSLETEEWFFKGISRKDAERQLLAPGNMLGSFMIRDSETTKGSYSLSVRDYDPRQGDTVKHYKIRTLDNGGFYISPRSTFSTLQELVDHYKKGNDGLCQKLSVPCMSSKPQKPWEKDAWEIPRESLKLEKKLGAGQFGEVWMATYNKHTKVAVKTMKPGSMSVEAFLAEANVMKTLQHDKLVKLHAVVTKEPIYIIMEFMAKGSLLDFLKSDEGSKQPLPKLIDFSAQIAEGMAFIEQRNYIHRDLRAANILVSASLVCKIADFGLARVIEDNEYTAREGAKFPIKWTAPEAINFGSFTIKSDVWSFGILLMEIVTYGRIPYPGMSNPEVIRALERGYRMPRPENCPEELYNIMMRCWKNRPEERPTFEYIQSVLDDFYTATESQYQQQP
Procedure for Fgr T338F: (§3) Assays were performed in quadruplicate in 384-well low volume, non-binding, black polystyrene microplates (Corning) according to the manufacturer’s instructions. Briefly, this assay measures phosphorylation of the Tyr2 peptide substrate which is tagged with coumarin and fluorescein on its N- and C-termini, respectively, to form a FRET pair. After the kinase reaction, a development step involves site-specific proteolytic cleavage of the unphosphorylated but not the phosphorylated peptide. […] Kinase reactions were run in 50 mM HEPES, pH 7.5, 10 mM MgCl2, 1 mM EGTA, and 0.01% BRIJ-35 (buffer supplied by the manufacturer). […] Following incubation for 1 h at ambient temperature, reactions were quenched by addition of the development protease, and coumarin and fluorescein fluorescence were measured 1 h later on a Molecular Devices SpectraMax M5 plate reader. […] For experiments with inhibitors, compounds were preincubated with kinase for 30 min prior to initiation of the reaction by the addition of ATP.
Procedure for Fgr T338L: as §3
Procedure for Fgr T338M: as §3
Procedure for Fgr wild-type: as §3

The term Km denotes the concentration of substrate that gives half-maximal velocity. As to `Nc1ncnc2c1ncn2[C@@H]1O[C@H](COP(=O)(O)OP(=O)(O)OP(=O)(O)O)[C@@H](O)[C@H]1O` [ATP], the Km on Hck T338M amounted to 6.9 µM; at Hck T338F, 42 µM; on Hck wild-type, 26 µM; on Fgr T338F, 95.7 µM; at Lyn T338F, 87.3 µM; at Lyn wild-type it was 32.8 µM. The Km on Fgr T338M is 5.3 µM; on Lyn T338M it was 7 µM; at Fgr T338L, 10 µM; at Hck T338L, 17.2 µM; at Lyn T338L, 24 µM; at Fgr wild-type it was 17.9 µM.
What is called IC50 is the concentration that gives 50% inhibition. With `NC(=O)c1cnc(N[C@@H]2CCCC[C@@H]2N)nc1Nc1cccc(-n2nccn2)c1` [PRT062607], the IC50 was 1200 ± 128 nM in [1]; 795 ± 128 nM in experiment [2]; 1640 ± 154 nM in experiment [3]; 1990 ± 377 nM in experiment [4]; 1720 ± 93.5 nM in experiment [5]; 2030 ± 1090 nM in experiment [6]. For the same compound, the IC50 is 1330 ± 183 nM in the experiment with MOLM14 cells (parent); 1380 ± 124 nM with MOLM13 cells (parent); 453 ± 90.7 nM in the experiment on MV4-11 cells (parent); 500 to 2000 nM in [7] (Homo sapiens, all three parent AML cell lines and their resistant counterparts, read-out: IC50 values for growth suppression). In addition, in [7] (fixed concentrations 50, 100 and 200 μM, 72 h, exception MV4-11 R2), the “effect of added Syk inhibitor on sensitivity to A-419259” value is on record as “did not affect”.
Take `CC(C)(C)c1cc(NC(=O)Nc2ccc(-c3cn4c(n3)sc3cc(OCCN5CCOCC5)ccc34)cc2)no1` [quizartinib]: the “inhibition of myeloid Src-family kinases” value in experiment [8] was “does not inhibit”.
